Experimental data as given in patent US11198699B2 (ALIGOS THERAPEUTICS, INC., priority 2019, dated 2021).

Experiments:
HepG2 hepatoma cells = assay: Cell proliferation assay, HepG2 (CellTiter-Glo, 7 days); type: cell-based; conditions: HepG2, 7 days, CellTiter-Glo 2.0
Method: (§1) HepG2 hepatoma cells (ATCC, HB-8065) were maintained in DMEM with high glucose (Lonza, 12-914F) supplemented with 10% fetal bovine serum (FBS; Biowest, S181B-500) and 2 mM L-glutamine (Biowest, X0551-100) at 37° C. and 5% CO2. A549 lung carcinoma cells (ATCC, CCL-185) were maintained in F-12K medium (ThermoFisher 21127030) supplemented with 10% FBS at 37° C. and 5% CO2. Exponentially growing HepG2 or A549 were plated in white, clear-bottom 96-well plates (Corning, 3903) at a cell density of 2000 (HepG2) or 350 (A549) cells per well in 199 μL of HepG2 medium. Next, 1 μL of a 5-fold 9-point dilution series of test compound in DMSO was added to the different wells. Cells were incubated at 37° C. 5% CO2 for 7 days. Cell viability was assessed on day 7 with the CellTiter-Glo 2.0 Cell Viability assay kit (Promega, G9243) to quantify the intracellular amounts of ATP: first, 100 μL of cell culture medium was removed from each well, next 100 μL of CellTiter-Glo® 2.0 Reagent was added and plates were shaken for 2 minutes on an orbital shaker. After 10 minutes stabilization at room temperature, read-out was performed on a ThermoFisher VarioSkan Lux plate reader. Counts were normalized to DMSO control (0% inhibition) and the cytotoxic control (100% inhibition) and EC50 values were determined in GraphPad Prism 8 using the [Agonist] vs. response—Variable slope (four parameters) function.
(§2) As shown by the data of Table 2, compounds of Formula (I) have activity in this assay. A value of ‘A’ in the table below indicates an EC50 of <20 nM, a value of ‘B’ indicates an EC50≥20 nM to <100 nM, a value of ‘C’ indicates an EC50 value of EC50≥100 nM to <1000 nM and a value of ‘D’ indicates an EC50≥1000 nM

[1] = tested on: A549 lung carcinoma cells; assay: Cell proliferation assay, A549 (CellTiter-Glo, 7 days); type: cell-based; conditions: A549, 7 days, CellTiter-Glo 2.0
Method: as §1, §2

PRMT5/MEP50 = PRMT5/MEP50 (Homo sapiens (Human), UniProt O14744); assay: PRMT5/MEP50 enzyme inhibition assay, Assay 2 (384-well, MALDI mass spectrometry, histone H4 1-21 peptide); type: biochemical; conditions: 1 μM SAM, 0.1 μM histone H4 1-21 peptide, 18-hour incubation at rt
PRMT5/MEP50, sequence (O14744 whole entry): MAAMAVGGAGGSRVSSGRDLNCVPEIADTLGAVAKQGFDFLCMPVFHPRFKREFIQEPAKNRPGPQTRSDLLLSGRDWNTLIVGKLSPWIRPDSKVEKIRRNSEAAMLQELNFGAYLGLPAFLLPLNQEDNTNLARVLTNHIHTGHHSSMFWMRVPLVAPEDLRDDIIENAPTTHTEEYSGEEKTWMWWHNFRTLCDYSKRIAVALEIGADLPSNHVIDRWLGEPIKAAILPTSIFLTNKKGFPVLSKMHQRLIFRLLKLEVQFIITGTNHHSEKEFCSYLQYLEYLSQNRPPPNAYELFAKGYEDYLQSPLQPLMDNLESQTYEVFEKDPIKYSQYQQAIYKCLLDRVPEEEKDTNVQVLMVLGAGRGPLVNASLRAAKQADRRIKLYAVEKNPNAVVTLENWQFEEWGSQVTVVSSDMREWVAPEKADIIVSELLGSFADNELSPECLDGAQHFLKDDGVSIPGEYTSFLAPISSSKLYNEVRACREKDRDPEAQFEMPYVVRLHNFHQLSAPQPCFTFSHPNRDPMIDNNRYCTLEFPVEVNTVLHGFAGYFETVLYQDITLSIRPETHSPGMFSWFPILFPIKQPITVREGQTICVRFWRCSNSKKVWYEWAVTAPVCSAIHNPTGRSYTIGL
PRMT5/MEP50, sequence (Q9BQA1 whole entry partner): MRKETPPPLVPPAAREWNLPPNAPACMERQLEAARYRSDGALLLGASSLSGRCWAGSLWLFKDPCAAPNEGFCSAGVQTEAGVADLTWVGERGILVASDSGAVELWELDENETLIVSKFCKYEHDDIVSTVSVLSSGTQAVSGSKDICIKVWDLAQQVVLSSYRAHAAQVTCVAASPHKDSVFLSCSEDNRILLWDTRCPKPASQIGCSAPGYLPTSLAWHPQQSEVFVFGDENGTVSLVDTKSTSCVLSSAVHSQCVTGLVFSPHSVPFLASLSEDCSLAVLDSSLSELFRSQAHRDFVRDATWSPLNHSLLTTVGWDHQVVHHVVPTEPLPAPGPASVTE
Method: Compounds were tested for inhibition of methyltransferase activity in 384-well plate assay format using mass spectrometry technology. In this enzyme inhibition assay, compounds were tested in a 11-dose IC50 mode with 3-serial dilution, in duplicate, starting at 1, 10, or 100 μM. Reactions were carried out at 1 μM SAM and 0.1 μM histone H4 1-21 peptide as substrates for methyl transfer. Following an 18-hour incubation at rt, the reaction was stopped with 0.5% formic acid. Products of the reaction were captured while unreacted substrates were washed away, prior to MALDI mass spectrometry detection and analysis. Percent enzyme activity was calculated based on no inhibitor DMSO control as 100% activity. EC50 values were determined in GraphPad Prism 8 using the [inhibitor] vs. response—Variable slope (four parameters) function.
Compounds of Formula (I) show activity in this assay. A value of ‘A’ in the table below indicates an IC50 of <1 nM, a value of ‘B’ indicates an IC50≥1 nM to ≤100 nM, and a value of ‘C’ indicates an IC50 value of >100 nM.

Structure (SMILES): C[C@]1(CCc2ccc3ccc(N)nc3c2)C[C@@H](n2ccc3c(N)nccc32)[C@H](O)[C@@H]1O [Compound 38, (1S,2R,3S,5R)-5-(4-amino-1H-pyrrolo[3,2-c]pyridin-1-yl)-3-(2-(2-aminoquinolin-7-yl)ethyl)-3-methylcyclopentane-1,2-diol]
- EC50 (HepG2 hepatoma cells; Homo sapiens, 168 h): < 20 nM
- EC50 ([1]; Homo sapiens, A549, 168 h): < 20 nM
- IC50 (PRMT5/MEP50): < 1 nM

Structure (SMILES): C[C@]1(CCc2ccc3cc(C#N)c(N)nc3c2)C[C@@H](n2ccc3c(N)ncnc32)[C@H](O)[C@@H]1O [Compound 27]
- EC50 (HepG2 hepatoma cells): 20 to 100 nM
- EC50 [1]: 20 to 100 nM
- IC50 (PRMT5/MEP50): < 1 nM

Structure (SMILES): C[C@]1(CCc2ccc3ccc(N)nc3n2)C[C@@H](n2ccc3c(N)ncnc32)[C@H](O)[C@@H]1O [Compound 24]
- EC50 (HepG2 hepatoma cells): 20 to 100 nM
- EC50 [1]: 20 to 100 nM
- IC50 (PRMT5/MEP50): < 1 nM

Structure (SMILES): CCCCCOC(=O)Nc1ccc2cc(CC[C@@]3(C)C[C@@H](n4ccc5c(N)ncnc54)[C@H](O)[C@@H]3O)ccc2n1 [Compound 20-A]
- EC50 (HepG2 hepatoma cells; Homo sapiens, 168 h): 100 to 1000 nM
- EC50 ([1]; Homo sapiens, A549, 168 h): 100 to 1000 nM
- IC50 (PRMT5/MEP50): > 100 nM

Structure (SMILES): Nc1ccc2ccc(CC[C@@]3(F)C[C@@H](n4ccc5c(N)ncnc54)[C@H](O)[C@@H]3O)cc2n1 [Compound 35, (1S,2S,3R,5R)-5-(4-amino-7H-pyrrolo[2,3-d]pyrimidin-7-yl)-3-(2-(2-aminoquinolin-7-yl)ethyl)-3-fluorocyclopentane-1,2-diol]
- EC50 (HepG2 hepatoma cells; Homo sapiens, 168 h): < 20 nM
- EC50 ([1]; Homo sapiens, A549, 168 h): < 20 nM

Structure (SMILES): Nc1nc2cc(CC[C@@]3(F)C[C@@H](n4ccc5c(N)ncnc54)[C@H](O)[C@@H]3O)cc(F)c2cc1Cl [Compound 36, (1S,2S,3R,5R)-3-(2-(2-amino-3-chloro-5-fluoroquinolin-7-yl)ethyl)-5-(4-amino-7H-pyrrolo[2,3-d]pyrimidin-7-yl)-3-fluorocyclopentane-1,2-diol]
- EC50 (HepG2 hepatoma cells; Homo sapiens, 168 h): < 20 nM
- EC50 ([1]; Homo sapiens, A549, 168 h): < 20 nM
- IC50 (PRMT5/MEP50): < 1 nM

Structure (SMILES): N#C[C@]1(CCc2cc(F)c3cc(Cl)c(N)nc3c2)C[C@@H](n2ccc3c(N)ncnc32)[C@H](O)[C@@H]1O [Compound 44, (1S,2R,3S,4R)-1-(2-(2-amino-3-chloro-5-fluoroquinolin-7-yl)ethyl)-4-(4-amino-7H-pyrrolo[2,3-d]pyrimidin-7-yl)-2,3-dihydroxycyclopentane-1-carbonitrile]
- EC50 (HepG2 hepatoma cells; Homo sapiens, 168 h): 100 to 1000 nM
- EC50 ([1]; Homo sapiens, A549, 168 h): 20 to 100 nM
- IC50 (PRMT5/MEP50): < 1 nM

Structure (SMILES): Cc1cnc2cc(OC[C@@]34C[C@@H]3[C@@H](n3ccc5c(N)ncnc53)[C@H](O)[C@@H]4O)ccn12 [Compound 16]
- EC50 (HepG2 hepatoma cells): ≥ 1000 nM
- EC50 [1]: ≥ 1000 nM
- IC50 (PRMT5/MEP50): < 1 nM

Structure (SMILES): NC(=O)[C@]1(CCc2cc(F)c3cc(Cl)c(N)nc3c2)C[C@@H](n2ccc3c(N)ncnc32)[C@H](O)[C@@H]1O [Compound 45, (1R,2R,3S,4R)-1-(2-(2-amino-3-chloro-5-fluoroquinolin-7-yl)ethyl)-4-(4-amino-7H-pyrrolo[2,3-d]pyrimidin-7-yl)-2,3-dihydroxycyclopentane-1-carboxamide]
- EC50 (HepG2 hepatoma cells; Homo sapiens, 168 h): 100 to 1000 nM
- EC50 ([1]; Homo sapiens, A549, 168 h): 100 to 1000 nM
- IC50 (PRMT5/MEP50): < 1 nM

Structure (SMILES): C[C@]1(CCc2cc(F)c3cc(Cl)c(N)nc3c2)C[C@@H](n2ccc3c(N)nc(Cl)nc32)[C@H](O)[C@@H]1O [Compound 53]
- EC50 (HepG2 hepatoma cells): < 20 nM
- EC50 [1]: < 20 nM
- IC50 (PRMT5/MEP50): < 1 nM

Structure (SMILES): C[C@]1(CCCCc2ccc(Cl)c(N)n2)C[C@@H](n2ccc3c(N)ncnc32)[C@H](O)[C@@H]1O [Compound 46, (1S,2R,3S,5R)-3-(4-(6-amino-5-chloropyridin-2-yl)butyl)-5-(4-amino-7H-pyrrolo[2,3-d]pyrimidin-7-yl)-3-methylcyclopentane-1,2-diol]
- EC50 (HepG2 hepatoma cells; Homo sapiens, 168 h): 100 to 1000 nM
- EC50 ([1]; Homo sapiens, A549, 168 h): 100 to 1000 nM
- IC50 (PRMT5/MEP50): < 1 nM

Structure (SMILES): CC(C)C(=O)O[C@H]1[C@H](n2ccc3c(N)ncnc32)[C@H]2C[C@@]2(CCc2ccc3nc(N)ccc3c2)[C@H]1OC(=O)C(C)C [Compound 25-A, (1R,2R,3S,4R,5S)-4-(4-amino-7H-pyrrolo[2,3-d]pyrimidin-7-yl)-1-(2-(2-aminoquinolin-6-yl)ethyl)bicyclo[3.1.0]hexane-2,3-diyl bis(2-methylpropanoate)]
- EC50 (HepG2 hepatoma cells; Homo sapiens, 168 h): ≥ 1000 nM
- EC50 ([1]; Homo sapiens, A549, 168 h): ≥ 1000 nM
- IC50 (PRMT5/MEP50): > 100 nM

Structure (SMILES): COC[C@]1(CCc2ccc3cc(Br)c(N)nc3c2)C[C@@H](n2ccc3c(N)ncnc32)[C@H](O)[C@@H]1O [Compound 58]
- IC50 (PRMT5/MEP50): < 1 nM

Structure (SMILES): Nc1nc2cc(CC[C@@]3(CO)C[C@@H](n4ccc5c(N)ncnc54)[C@H](O)[C@@H]3O)cc(F)c2cc1Cl [Compound 40, (1S,2R,3S,5R)-3-(2-(2-amino-3-chloro-5-fluoroquinolin-7-yl)ethyl)-5-(4-amino-7H-pyrrolo[2,3-d]pyrimidin-7-yl)-3-(hydroxymethyl)cyclopentane-1,2-diol]
- EC50 (HepG2 hepatoma cells; Homo sapiens, 168 h): < 20 nM
- EC50 ([1]; Homo sapiens, A549, 168 h): < 20 nM
- IC50 (PRMT5/MEP50): < 1 nM

Structure (SMILES): C[C@]1(CCc2cc3nc(N)ccc3c(F)c2F)C[C@@H](n2ccc3c(N)ncnc32)[C@H](O)[C@@H]1O [Compound 41, (1S,2R,3S,5R)-3-(2-(2-amino-5,6-difluoroquinolin-7-yl)ethyl)-5-(4-amino-7H-pyrrolo[2,3-d]pyrimidin-7-yl)-3-methylcyclopentane-1,2-diol]
- EC50 (HepG2 hepatoma cells; Homo sapiens, 168 h): < 20 nM
- EC50 ([1]; Homo sapiens, A549, 168 h): < 20 nM
- IC50 (PRMT5/MEP50): < 1 nM

Structure (SMILES): CCCCCOC(=O)Nc1nc2cc(CC[C@@]3(C)C[C@@H](n4ccc5c(N)ncnc54)[C@H](O)[C@@H]3O)ccc2cc1Cl [Compound 33, pentyl (7-(2-((1S,2R,3S,4R)-4-(4-amino-7H-pyrrolo[2,3-d]pyrimidin-7-yl)-2,3-dihydroxy-1-methylcyclopentyl)ethyl)-3-chloroquinolin-2-yl)carbamate]
- EC50 (HepG2 hepatoma cells; Homo sapiens, 168 h): < 20 nM
- EC50 ([1]; Homo sapiens, A549, 168 h): < 20 nM

Structure (SMILES): C[C@]1(CCc2ccc3cc(Br)c(N)nc3c2)C[C@@H](n2ccc3c(N)ncnc32)[C@H](O)[C@@H]1O [Compound 1]
- EC50 (HepG2 hepatoma cells; Homo sapiens, 168 h): < 20 nM
- EC50 ([1]; Homo sapiens, A549, 168 h): < 20 nM

Structure (SMILES): CC(C)C(=O)O[C@H]1[C@H](n2ccc3c(N)ncnc32)C[C@](C)(CCc2ccc3ccc(N)nc3c2)[C@H]1OC(=O)C(C)C [Compound 26, (1S,2R,3S,5R)-5-(4-amino-7H-pyrrolo[2,3-d]pyrimidin-7-yl)-3-(2-(2-aminoquinolin-7-yl)ethyl)-3-methylcyclopentane-1,2-diyl bis(2-methylpropanoate)]
- EC50 (HepG2 hepatoma cells; Homo sapiens, 168 h): 20 to 100 nM
- EC50 ([1]; Homo sapiens, A549, 168 h): 100 to 1000 nM
- IC50 (PRMT5/MEP50): > 100 nM

Structure (SMILES): C[C@]1(CCc2cc(F)c3ccc(N)nc3c2)C[C@@H](n2ccc3c(N)ncc(F)c32)[C@H](O)[C@@H]1O [Compound 42, (1S,2R,3S,5R)-3-(2-(2-amino-5-fluoroquinolin-7-yl)ethyl)-5-(4-amino-7-fluoro-1H-pyrrolo[3,2-c]pyridin-1-yl)-3-methylcyclopentane-1,2-diol]
- EC50 (HepG2 hepatoma cells; Homo sapiens, 168 h): < 20 nM
- EC50 ([1]; Homo sapiens, A549, 168 h): < 20 nM
- IC50 (PRMT5/MEP50): < 1 nM

Structure (SMILES): C[C@]1(CCc2cc(F)c3ccc(N)nc3c2)C[C@@H](n2ccc3c(N)ncnc32)[C@H](O)[C@@H]1O [Compound 37, (1S,2R,3S,5R)-3-(2-(2-amino-5-fluoroquinolin-7-yl)ethyl)-5-(4-amino-7H-pyrrolo[2,3-d]pyrimidin-7-yl)-3-methylcyclopentane-1,2-diol]
- EC50 (HepG2 hepatoma cells; Homo sapiens, 168 h): < 20 nM
- EC50 ([1]; Homo sapiens, A549, 168 h): < 20 nM
- IC50 (PRMT5/MEP50): < 1 nM

Structure (SMILES): Cc1ncnc2c1ccn2[C@@H]1C[C@](C)(CCc2cc(F)c3cc(Cl)c(N)nc3c2)[C@@H](O)[C@H]1O [Compound 32, (1S,2R,3S,5R)-3-(2-(2-amino-3-chloro-5-fluoroquinolin-7-yl)ethyl)-3-methyl-5-(4-methyl-7H-pyrrolo[2,3-d]pyrimidin-7-yl)cyclopentane-1,2-diol]
- EC50 (HepG2 hepatoma cells; Homo sapiens, 168 h): < 20 nM
- EC50 ([1]; Homo sapiens, A549, 168 h): < 20 nM

Structure (SMILES): C[C@]1(CCc2cc(F)c3cc(Cl)c(N)nc3c2)C[C@@H](n2ccc3c(N)ncc(F)c32)[C@H](O)[C@@H]1O [Compound 34, (1S,2R,3S,5R)-3-[2-(2-amino-3-chloro-5-fluoro-7-quinolyl)ethyl]-5-(4-amino-7-fluoro-pyrrolo[3,2-c]pyridin-1-yl)-3-methyl-cyclopentane-1,2-diol]
- EC50 (HepG2 hepatoma cells; Homo sapiens, 168 h): < 20 nM
- EC50 ([1]; Homo sapiens, A549, 168 h): < 20 nM

Structure (SMILES): C[C@]1(CCc2cc(F)c3cc(Cl)c(N)nc3c2)C[C@@H](c2ccc3c(N)ncnn23)[C@H](O)[C@@H]1O [Compound 57]
- IC50 (PRMT5/MEP50): < 1 nM
